Drawing on patent US20260070945A1, “MACROCYCLIC IMMUNOMODULATORS” (Bristol-Myers Squibb Company, priority 2022, published 2026), this text covers IC50 for twelve molecules.

pIC50: −log10 of the molar value. Where a SMILES comes first, the peptide text is derived from it. Bridges are numbered along the chain shown (N, C = ends). [ ]: non-standard residue; d: D form. The star is where a group is joined. Phe(4-COOH) = N[C@@H](Cc1ccc(C(=O)O)cc1)C(=O)O; Bip = N[C@@H](Cc1ccc(-c2ccccc2)cc1)C(=O)O; Phe(3-Me) = Cc1cccc(C[C@H](N)C(=O)O)c1; NH(CH2)12COOH = O=C(O)CCCCCCCCCCCCN*; Val(3-OH) = CC(C)(O)[C@H](N)C(=O)O; 4Pal = N[C@@H](Cc1ccncc1)C(=O)O; Cha = N[C@@H](CC1CCCCC1)C(=O)O; Cit = NC(=O)NCCC[C@H](N)C(=O)O; Carboxymethyl = O=C(O)C*; NMeA = CN[C@@H](C)C(=O)O; Aun = NCCCCCCCCCCC(=O)O; Dab = NCC[C@H](N)C(=O)O; Dap = NC[C@H](N)C(=O)O; AEEA = NCCOCCOCC(=O)O; Propargyl = C#CC*

T1 sequence (Q15116 25-288): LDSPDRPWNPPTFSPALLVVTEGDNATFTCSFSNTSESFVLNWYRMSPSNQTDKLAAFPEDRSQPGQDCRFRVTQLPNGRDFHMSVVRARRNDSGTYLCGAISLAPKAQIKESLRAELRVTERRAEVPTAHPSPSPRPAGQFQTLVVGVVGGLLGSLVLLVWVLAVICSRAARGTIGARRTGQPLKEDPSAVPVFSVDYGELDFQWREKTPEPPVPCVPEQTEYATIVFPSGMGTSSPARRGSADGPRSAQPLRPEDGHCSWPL

The test concerns the target T1, PD-1/PD-L1 interaction (PE-labeled human PD-L1-Ig binding to Jurkat cell line over-expressing human PD-1) (Homo sapiens, UniProt Q15116).
T1 construct: expressed in transfected cells; host or cells: Jurkat
Kind of test: Jurkat-PD-1 Cell Binding High-Content Screening Assay (CBA). The settings on record: Jurkat-hPD-1 cells, PE-labeled PD-L1-Ig 20 nM final; read-out: Jurkat HPD1 PDL1 IC50. Put shortly: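 Cells 8×10^3/well, DMEM + 10% FCS; cpd 2 h, 37 °C; PE–PD-L1-Ig 20 nM final, 1 h; PFA fix + Hoechst 33342, 3× dPBS wash; high-content imager.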
By pIC50 is commonly meant the negative decadic logarithm of the IC50, by convention in mol/L. Take `CC(C)C[C@@H]1NC(=O)[C@H](Cc2c[nH]c3ccccc23)NC(=O)[C@H](CC(=O)O)NC(=O)[C@H](Cc2ccc(C(=O)O)cc2)NC(=O)[C@H](Cc2ccc(OCC(=O)O)cc2)NC(=O)CSC[C@@H](C(=O)NCCOCCOCC(=O)NCCCCCCCCCCC(=O)O)NC(=O)[C@H](CN)NC(=O)[C@H](C(C)C)NC(=O)[C@H](CC2CCCCC2)NC(=O)[C@H](CCN)NC(=O)[C@@H](CC(C)C)NC(=O)[C@H](C)N(C)C(=O)[C@H](C(C)C)NC(=O)[C@H](Cc2ccc(-c3ccccc3)cc2)NC1=O` [Example 1093] ({CH2CO}-Y(Carboxymethyl)[Phe(4-COOH)]DWL[Bip]V[NMeA][dL][Dab][Cha]V[Dap]C[AEEA][Aun]-OH; thioether N-14): the pIC50 is 7.84.

On to `CC(C)C[C@@H]1NC(=O)[C@H](Cc2c[nH]c3ccccc23)NC(=O)[C@H](CC(=O)O)NC(=O)[C@H](Cc2ccc(C(=O)O)cc2)NC(=O)[C@H](Cc2ccc(OCC(=O)O)cc2)NC(=O)CSC[C@@H](C(=O)N[C@@H](CN)C(=O)NCCCCCCCCCCC(=O)O)NC(=O)[C@H](CCCNC(N)=O)NC(=O)[C@H](C(C)C)NC(=O)[C@H](CC2CCCCC2)NC(=O)[C@H](CCN)NC(=O)[C@@H](CC(C)C)NC(=O)[C@H](C)N(C)C(=O)[C@H](C(C)C)NC(=O)[C@H](Cc2ccc(-c3ccccc3)cc2)NC1=O` [Example 1098] ({CH2CO}-Y(Carboxymethyl)[Phe(4-COOH)]DWL[Bip]V[NMeA][dL][Dab][Cha]V[Cit]C[Dap][Aun]-OH; thioether N-14), for which the pIC50 was 8.07.

For the molecule `CC(C)C[C@@H]1NC(=O)[C@H](Cc2c[nH]c3ccccc23)NC(=O)[C@H](CC(=O)O)NC(=O)[C@H](Cc2ccc(C(=O)O)cc2)NC(=O)[C@H](Cc2ccc(OCC(=O)O)cc2)NC(=O)CSC[C@@H](C(=O)N[C@@H](CCCCN)C(=O)NCCCCCCCCCCC(=O)O)NC(=O)[C@H](CCCNC(N)=O)NC(=O)[C@H](C(C)C)NC(=O)[C@H](CC2CCCCC2)NC(=O)[C@H](CCN)NC(=O)[C@@H](CC(C)C)NC(=O)[C@H](C)N(C)C(=O)[C@H](C(C)C)NC(=O)[C@H](Cc2ccc(-c3ccccc3)cc2)NC1=O` [Example 1099] ({CH2CO}-Y(Carboxymethyl)[Phe(4-COOH)]DWL[Bip]V[NMeA][dL][Dab][Cha]V[Cit]CK[Aun]-OH; thioether N-14), the pIC50 was 8.01.

For `CC(C)C[C@@H]1NC(=O)[C@H](Cc2c[nH]c3ccccc23)NC(=O)[C@H](CC(=O)O)NC(=O)[C@H](Cc2ccc(C(=O)O)cc2)NC(=O)[C@H](Cc2ccc(OCC(=O)O)cc2)NC(=O)CSC[C@@H](C(=O)N[C@@H](CCCNC(=N)N)C(=O)NCCCCCCCCCCC(=O)O)NC(=O)[C@H](CCCNC(N)=O)NC(=O)[C@H](C(C)C)NC(=O)[C@H](CC2CCCCC2)NC(=O)[C@H](CCN)NC(=O)[C@@H](CC(C)C)NC(=O)[C@H](C)N(C)C(=O)[C@H](C(C)C)NC(=O)[C@H](Cc2ccc(-c3ccccc3)cc2)NC1=O` [Example 1100] ({CH2CO}-Y(Carboxymethyl)[Phe(4-COOH)]DWL[Bip]V[NMeA][dL][Dab][Cha]V[Cit]CR[Aun]-OH; thioether N-14), the pIC50 was 7.70.

Regarding `CC(C)C[C@@H]1NC(=O)[C@H](Cc2c[nH]c3ccccc23)NC(=O)[C@H](CC(=O)O)NC(=O)[C@H](Cc2ccc(C(=O)O)cc2)NC(=O)[C@H](Cc2ccc(OCC(=O)O)cc2)NC(=O)CSC[C@@H](C(=O)NCCOCCOCC(=O)NCCCCCCCCCCC(=O)O)NC(=O)[C@H](CCCNC(N)=O)NC(=O)[C@H](C(C)C)NC(=O)[C@H](CC2CCCCC2)NC(=O)[C@H](CCN)NC(=O)[C@@H](CC(C)C)NC(=O)[C@H](C)N(C)C(=O)[C@H](Cc2ccc(O)cc2)NC(=O)[C@H](Cc2ccc(-c3ccccc3)cc2)NC1=O` [Example 1101] ({CH2CO}-Y(Carboxymethyl)[Phe(4-COOH)]DWL[Bip]Y[NMeA][dL][Dab][Cha]V[Cit]C[AEEA][Aun]-OH; thioether N-14), the pIC50 is 7.32.

For the molecule `C#CCOC[C@@H]1NC(=O)[C@H](C(C)C)NC(=O)[C@H](CC2CCCCC2)NC(=O)[C@H](CCN)NC(=O)[C@@H](CC(C)C)NC(=O)[C@H](C)N(C)C(=O)[C@H](Cc2ccc(OCC(=O)O)cc2)NC(=O)[C@H](Cc2ccc(-c3ccccc3)cc2)NC(=O)[C@H](Cc2ccc(OCC(=O)O)cc2)NC(=O)[C@H](Cc2c[nH]c3ccccc23)NC(=O)[C@H](CC(=O)O)NC(=O)[C@H](Cc2ccncc2)NC(=O)[C@H](Cc2ccc(OCC(=O)O)cc2)NC(=O)CSC[C@@H](C(=O)N[C@@H](CCN)C(=O)NCCOCCOCC(=O)NCCCCCCCCCCC(=O)O)NC1=O` [Example 1103] ({CH2CO}-Y(Carboxymethyl)[4Pal]DWY(Carboxymethyl)[Bip]Y(Carboxymethyl)[NMeA][dL][Dab][Cha]VS(Propargyl)C[Dab][AEEA][Aun]-OH; thioether N-14), the pIC50 was 7.72.

Turning to `Cc1cccc(C[C@@H]2NC(=O)[C@H](CC(=O)O)NC(=O)[C@H](Cc3ccc(C(=O)O)cc3)NC(=O)[C@H](Cc3ccncc3)NC(=O)CSC[C@@H](C(=O)N[C@@H](CCN)C(=O)NCCOCCOCC(=O)NCCCCCCCCCCCCC(=O)O)NC(=O)[C@H](CCC(=O)O)NC(=O)[C@H](C(C)(C)O)NC(=O)[C@H](CC3CCCCC3)NC(=O)[C@H](CCN)NC(=O)[C@@H](CC(C)C)NC(=O)[C@H](C)N(C)C(=O)[C@H](Cc3ccc(C(=O)O)cc3)NC(=O)[C@H](Cc3ccc(-c4ccccc4)cc3)NC(=O)[C@H](Cc3ccc(C(=O)O)cc3)NC2=O)c1` [Example 1104] ({CH2CO}-[4Pal][Phe(4-COOH)]D[Phe(3-Me)][Phe(4-COOH)][Bip][Phe(4-COOH)][NMeA][dL][Dab][Cha][Val(3-OH)]EC[Dab][AEEA]-{NH(CH2)12COOH}; thioether N-14), the pIC50 is 6.25.

On to `Cc1cccc(C[C@@H]2NC(=O)[C@H](CC(=O)O)NC(=O)[C@H](Cc3ccc(C(=O)O)cc3)NC(=O)[C@H](Cc3ccc(OCC(=O)O)cc3)NC(=O)CSC[C@@H](C(=O)N[C@@H](CCN)C(=O)NCCOCCOCC(=O)NCCOCCOCC(=O)NCCCCCCCCCCCCC(=O)O)NC(=O)[C@H](CO)NC(=O)[C@H](C(C)(C)O)NC(=O)[C@H](CC3CCCCC3)NC(=O)[C@H](CCN)NC(=O)[C@@H](CC(C)C)NC(=O)[C@H](C)N(C)C(=O)[C@H](CCC(N)=O)NC(=O)[C@H](Cc3ccc(-c4ccccc4)cc3)NC(=O)[C@H](Cc3ccc(C(=O)O)cc3)NC2=O)c1` [Example 1105] ({CH2CO}-Y(Carboxymethyl)[Phe(4-COOH)]D[Phe(3-Me)][Phe(4-COOH)][Bip]Q[NMeA][dL][Dab][Cha][Val(3-OH)]SC[Dab][AEEA][AEEA]-{NH(CH2)12COOH}; thioether N-14), for which the pIC50 is 8.14.

As to `CC(C)C[C@H]1NC(=O)[C@H](C)N(C)C(=O)[C@H](Cc2ccc(OCC(=O)O)cc2)NC(=O)[C@H](Cc2ccc(-c3ccccc3)cc2)NC(=O)[C@H](Cc2ccc(OCC(=O)O)cc2)NC(=O)[C@H](Cc2c[nH]c3ccccc23)NC(=O)[C@H](CC(=O)O)NC(=O)[C@H](Cc2ccncc2)NC(=O)[C@H](Cc2ccc(OCC(=O)O)cc2)NC(=O)CSC[C@@H](C(=O)N[C@@H](CCN)C(=O)NCCCCCCCCCCC(=O)O)NC(=O)[C@H](CCCn2cc(CN(C)C(=O)c3ccc(F)cc3)nn2)NC(=O)[C@H](C(C)C)NC(=O)[C@H](CC2CCCCC2)NC(=O)[C@H](CCN)NC1=O` [Example 1110], the pIC50 was 7.64.

In the case of `CC(C)C[C@@H]1NC(=O)[C@H](Cc2c[nH]c3ccccc23)NC(=O)[C@H](CC(=O)O)NC(=O)[C@H](Cc2ccc(C(=O)O)cc2)NC(=O)[C@H](Cc2ccc(OCC(=O)O)cc2)NC(=O)CSC[C@@H](C(=O)NCCOCCOCC(=O)NCCCCCCCCCCC(=O)O)NC(=O)[C@H](CCCNC(N)=O)NC(=O)[C@H](C(C)(C)O)NC(=O)[C@H](CC2CCCCC2)NC(=O)[C@H](CCN)NC(=O)[C@@H](CC(C)C)NC(=O)[C@H](C)N(C)C(=O)[C@H](C(C)C)NC(=O)[C@H](Cc2ccc(-c3ccccc3)cc2)NC1=O` [Example 1111] ({CH2CO}-Y(Carboxymethyl)[Phe(4-COOH)]DWL[Bip]V[NMeA][dL][Dab][Cha][Val(3-OH)][Cit]C[AEEA][Aun]-OH; thioether N-14), the pIC50 was 8.04.

As for `CC(C)C[C@@H]1NC(=O)[C@H](Cc2c[nH]c3ccccc23)NC(=O)[C@H](CC(=O)O)NC(=O)[C@H](Cc2ccc(C(=O)O)cc2)NC(=O)[C@H](Cc2ccc(OCC(=O)O)cc2)NC(=O)CSC[C@@H](C(=O)NCCOCCOCC(=O)NCCCCCCCCCCC(=O)O)NC(=O)[C@H](CCC(=O)O)NC(=O)[C@H](C(C)(C)O)NC(=O)[C@H](CC2CCCCC2)NC(=O)[C@H](CCN)NC(=O)[C@@H](CC(C)C)NC(=O)[C@H](C)N(C)C(=O)[C@H](C(C)C)NC(=O)[C@H](Cc2ccc(-c3ccccc3)cc2)NC1=O` [Example 1112] ({CH2CO}-Y(Carboxymethyl)[Phe(4-COOH)]DWL[Bip]V[NMeA][dL][Dab][Cha][Val(3-OH)]EC[AEEA][Aun]-OH; thioether N-14), the pIC50 is 7.33.

Regarding `CC(C)C[C@@H]1NC(=O)[C@H](Cc2c[nH]c3ccccc23)NC(=O)[C@H](CC(=O)O)NC(=O)[C@H](Cc2ccc(C(=O)O)cc2)NC(=O)[C@H](Cc2ccc(OCC(=O)O)cc2)NC(=O)CSC[C@@H](C(=O)NCCOCCOCC(=O)NCCCCCCCCCCC(=O)O)NC(=O)[C@H](CCC(=O)O)NC(=O)[C@H](C(C)(C)O)NC(=O)[C@H](CC2CCCCC2)NC(=O)[C@H](CCN)NC(=O)[C@@H](CC(C)C)NC(=O)[C@H](C)N(C)C(=O)[C@H](C(C)C)NC(=O)[C@H](Cc2ccc(-c3ccccc3)cc2)NC1=O` [Example 1114] ({CH2CO}-Y(Carboxymethyl)[Phe(4-COOH)]DWL[Bip]V[NMeA][dL][Dab][Cha][Val(3-OH)]EC[AEEA][Aun]-OH; thioether N-14), the pIC50 was 7.36.
